According to US12257227B2, “Combination solution for treating chemotherapy refractory cancer” (1GLOBE BIOMEDICAL CO., LTD., priority 2018, dated 2025):

Legend:
[1] = system: human pancreatic adenocarcinoma (Panc-1); assay: Xenograft tumor mouse model, tumor size during treatment; assay type: in vivo, mice; conditions: FIG. 4; 2-acetylnaphtho[2,3-b]furan-4,9-dione 100 mg/kg PO bid; gemcitabine 80 mg/kg IV q3d; mean of five tumors
Protocol: The effects of 2-acetylnaphtho[2,3-b]furan-4,9-dione, the compound of formula (I), gemcitabine, and a combination of 2-acetylnaphtho[2,3-b]furan-4,9-dione and gemcitabine were studied. Specifically, immunosuppressed mice with established human pancreatic adenocarcinoma (Panc-1) were treated with vehicle control, 2-acetylnaphtho[2,3-b]furan-4,9-dione (100 mg/kg, PO, bid), gemcitabine (Gemzar, 80 mg/kg, IV, q3d), or the combination of 2-acetylnaphtho[2,3-b]furan-4,9-dione and gemcitabine. Tumor size was evaluated periodically during treatment. Each point represents the mean±SEM of five tumors.

p-STAT3 and β-catenin = assay: Immunofluorescence of cancer stem cell markers in xenograft tumors; assay type: in vivo, mice; conditions: FIG. 5; tumors collected 24 hours after first dose; e.g. 50 mg/kg BID oral gavage
Protocol: Detection of the effects of 2-acetylnaphtho[2,3-b]furan-4,9-dione with or without paclitaxel on cancer stem cells for cancer stem cell markers in cancer xenograft animal models.
Human cancer cells were implanted subcutaneously into the right abdomen of 5 to 7 weeks athymic nude mice. When the tumor size reaches 200 mm^3, administer 2-acetylnaphtho[2,3-b]furan-4,9-dione (for example, 50 mg/kg (BID) by oral gavage (n=3/group)), paclitaxel, or 2-acetylnaphtho[2,3-b]furan-4,9-dione combined with paclitaxel to treat animals. Tumors were collected 24 hours after the first dose.
The harvested tissues were fixed in 3.7% neutral buffered formaldehyde at 4° C. overnight. Paraffin embedding were performed. Cut those into approximately 5 microns and fix them on positively charged glass slides. After baking and deparaffinization, the slides with tumor or control tissue were incubated in 10 mM sodium citrate (pH 6.0) for 10 minutes. After antigen retrieval, use primary antibody P-STAT3 (Rabbit, Cell Signaling, 1:100), β-catenin (Mouse, Santa Cruz, 1:400) to label slides overnight at 4° C., and then use Alexa Fluor Fluorescent dye-conjugated secondary antibody (1:500, Invitrogen). After mounting, the glass slides containing DAPI (Invitrogen) with Prolong mounting medium were detected under the 20× objective lens of a Zeiss fluorescence microscope, and analyzed with Zen software.

[2] = system: advanced pancreatic cancer; assay: Phase II/III open label clinical study in patients who failed previous treatments (RECIST 1.1); assay type: in vivo, human; conditions: all patients receiving treatment
Excerpt: In a phase II/III extended open label international multicenter experiment, search the effect of the compound of formula (I), 2-acetylnaphtho[2,3-b]furan-4,9-dioen combined with paclitaxel and a low dose of gemcitabine on patients with advanced pancreatic cancer who have failed previous treatments.
In the clinical study, we observed the anti-tumor activity and safety of 2-acetylnaphtho[2,3-b]furan-4,9-dione combined with paclitaxel weekly and a low dose of gemcitabine in patients with advanced pancreatic cancer who failed previous treatment. There are imaging disease progressions in patients who have received at least first-line systemic treatment in the past and failed. Previous treatments include gemcitabine-based single-agent or combination chemotherapy, and/or FOLFIRINOX/mFOLFIRINOX chemotherapy. […]
The remission and progression of the tumor were evaluated according to the RECIST 1.1 standard. […]

STAT3 pathway = conditions: according to WO2009/036059; read-out: STAT3 pathway activity, cellular IC50; cited from earlier work

Compound | tumor growth (tumor volume) [1] | expression (staining) of stem cell markers p-STAT3 and β-catenin (p-STAT3 and β-catenin) | adverse events related to the compound [2] | IC50 (STAT3 pathway)
CC(=O)c1cc2c(o1)C(=O)c1ccccc1C2=O [2-acetylnaphtho[2,3-b]furan-4,9-dione] | showed certain effects in inhibiting tumor growth | significantly reduce the expression of stem cell markers p-STAT3 and β-catenin | mainly gastrointestinal adverse events | ~250 nM
Nc1ccn([C@@H]2O[C@H](CO)[C@@H](O)C2(F)F)c(=O)n1 [gemcitabine, reference compound] | showed certain effects in inhibiting tumor growth | – | – | –
CC(=O)O[C@H]1C(=O)[C@@]2(C)[C@H]([C@H](OC(=O)c3ccccc3)[C@]3(O)C[C@H](OC(=O)[C@H](O)[C@@H](NC(=O)c4ccccc4)c4ccccc4)C(C)=C1C3(C)C)[C@]1(OC(C)=O)CO[C@@H]1C[C@@H]2O [paclitaxel, reference compound] | – | increased staining of stem cell markers | – | –
